According to ChEMBL document CHEMBL1139143, “Synthesis and structure-activity relationships of N-substituted spiropiperidines as nociceptin receptor ligands” (Bioorg Med Chem Lett, 2007):

Columns and labels:
Type in all cases: ADME, organism-based
[1] = AUC (0 to 6 hrs) in rat; parameters: time < 6 hr; conditions: plasma
[2] = Cmax in rat after 4 hrs; conditions: in vivo
[3] = Drug level in rat after 6 hrs; conditions: in vivo, read-out: Drug uptake

Q: Which results are given for CC1(C)CCC(N2CCC3(CC2)C(=O)NCN3c2ccccc2)c2cc(Cl)c(Cl)cc21 (stereo not drawn)?
A: AUC(0-t) at 6 h [1]: 2.11 µM·h; Cmax [2]: 518 nM; concentration at 6 h [3]: 467 nM
